According to patent US9834544B2, “Sweet flavor modifier” (SENOMYX, INC., priority 2011, dated 2017):

Experiments:
Assay type in all cases: in vivo
[1] = tested on: Human Panelists; test: Sweet flavor enhancement, human panelists, scaling test; details: 0 to 15 scale, n = 30
Description: Test samples containing experimental compounds were compared to a dose-response curve for perceived sweetness intensity of sweeteners (sucralose, sucrose, fructose and other sweeteners) concentrations to determine equivalent sweetness intensity.
A group of eight or more panelists tasted solutions including sweeteners at various concentrations, as well as the experimental compound both with and without added sweetener. Panelists then rated sweetness intensity of all samples on a structured horizontal line scale, anchored from 0 to 15, where 0 equals no sweetness and 15 equals equivalent sweetness to a 15% sucrose sample. Scores for sweetness intensity were averaged across panelists. Then using the average scores and/or equation of the line for the sweetener dose-response curve, equivalent sweetness concentrations were determined for the samples containing experimental compounds.
Subjects had been previously familiarized with the key attribute taste and were trained to use the 0 to 15 point line scale. Subjects refrained from eating or drinking (except water) for at least 1 hour prior to the test. Subjects ate a cracker and rinsed with water several times to clean the mouth.
Sweetener solutions are provided at a wide range of concentrations such as 100 ppm, 200 ppm, 300 ppm, 400 ppm, and 500 ppm for sucralose, or between 0% and 12% for sucrose or fructose, in order to create a dose-response curve. Samples containing experimental compound were prepared both alone and in a 100 ppm sucralose solution or a 6% sucrose or fructose solution. All samples were made up in low sodium buffer pH 7.1. In order to aid dispersion, solutions can be made up in 0.1% ethanol.
The solutions were dispensed in 20 ml volumes into 1 oz. sample cups and served to the subjects at room temperature. All samples were presented in randomized counterbalanced order to reduce response bias. Further, two sessions of testing may be used to check panel precision.
Subjects tasted each sample individually and rate sweetness intensity on the line scale prior to tasting the next sample. All samples were expectorated. Subjects may retaste the samples but can only use the volume of sample given. Subjects must rinse with water between samples. Eating an unsalted cracker between samples may be required depending on the samples tasted.
The scores for each sample were averaged across subjects and standard error was calculated. The dose-response curve was plotted graphically, and this may be used to ensure the panel is rating accurately; i.e., increasing the concentration of sucralose should correspond to increased average scores for sweetness. […]

[2] = tested on: Human Panelists; test: Sweet flavor enhancement, human panelists, paired comparison test
Method: (§1) Test samples containing experimental compounds are presented in pairs to the panelist and they are asked to determine which of the sample is sweeter. A group of 10-16 or more panelists participated in each test. Subjects refrained from eating or drinking (except water) for at least 1 hour prior to the test. Subjects rinsed with water several times to clean the mouth.
All samples are prepared with ethanol to ensure dispersion of the compound in solution. This includes samples without compound; all solutions are balanced for 0.1% ethanol.
Samples are also prepared with low sodium buffer (pH 7.1) in place of water. Buffer contains 0.952 g of KCl, 5.444 g of Na2HPO4, and 0.952 g of KH2PO4 in 40 L of DIUF water. Sample volumes are usually 20 ml.
(§2) In one paired comparison test, the panelist is presented with two different samples and asked to identify the sample which is sweeter. The samples within a paired comparison test are presented in a randomized, counterbalanced order. Panelists have up to a 1 minute delay between taste tests to clear the mouth of any tastes.
(§3) Binomial probability tables are used to determine the probability of the correct number of responses occurring for each test at alpha=0.05

[3] = tested on: Human Panelists; test: Paired comparison test with Compound D5 in product prototype (drinks)
Method: as §1, §2, §3
Human panelists evaluated various drinks (e.g., tea, coffee, Kool-Aid) in paired comparison taste test procedure.

OC[C@H]1O[C@@](CO)(O[C@H]2O[C@H](CO)[C@@H](O)[C@H](O)[C@H]2O)[C@@H](O)[C@@H]1O [Sucrose]
Average Sweetness ([1]; 6% Sucrose): 6.6
Average Sweetness ([1]; 8% Sucrose): 8.1
Average Sweetness ([1]; 10% Sucrose): 9.8
Average Sweetness ([1]; 12% Sucrose): 11.0
Sample selected as sweeter by panelists, Total ([2]; 1% Sucrose vs LSB + 27.8 μM Compound D5, n = 45): 43
Sample selected as sweeter by panelists, Total ([2]; 1% Sucrose vs LSB + 27.8 μM Compound Y5, n = 45): 44
Sample selected as sweeter by panelists, Total ([2]; 1% Sucrose vs LSB + 111.3 μM Compound D5, n = 29): 21
Sample selected as sweeter by panelists, Total ([2]; 10% Sucrose vs 6% Sucrose + 24.9 μM Compound E5, n = 39): 13
Sample selected as sweeter by panelists, Total ([2]; 10% Sucrose vs 6% Sucrose + 26.8 μM Compound L6, n = 45): 14
Sample selected as sweeter by panelists, Total ([2]; 10% Sucrose vs 6% Sucrose + 26.9 μM Compound A6, n = 45): 9
Sample selected as sweeter by panelists, Total ([2]; 10% Sucrose vs 6% Sucrose + 26.9 μM Compound Q5, n = 48): 13
Sample selected as sweeter by panelists, Total ([2]; 10% Sucrose vs 6% Sucrose + 26.9 μM Compound R5, n = 42): 16
Sample selected as sweeter by panelists, Total ([2]; 10% Sucrose vs 6% Sucrose + 27.8 μM Compound D5, n = 45): 13
Sample selected as sweeter by panelists, Total ([2]; 10% Sucrose vs 6% Sucrose + 27.8 μM Compound Y5, n = 11 (11 panelists × 2 reps)): 8
Sample selected as sweeter by panelists, Total ([2]; 10% Sucrose vs 6% Sucrose + 27.9 μM Compound K5, n = 45): 11
Sample selected as sweeter by panelists, Total ([2]; 10% Sucrose vs 6% Sucrose + 28.9 μM Compound E6, n = 39): 18
Sample selected as sweeter by panelists, Total ([3]; 8% Sucrose Brewed Neutral Black Tea vs 4% Sucrose Brewed Neutral Black Tea + 30.6 μM Compound D5, n = 39): 22
Sample selected as sweeter by panelists, Total ([3]; 8% Sucrose Coffee Drink vs 4% Sucrose Coffee Drink + 23.65 μM Compound D5, n = 39): 20
Sample selected as sweeter by panelists, Total ([3]; 10% Sucrose Cherry Kool-Aid vs 5% Sucrose Cherry Kool-Aid + 41.7 μM Compound D5, n = 33): 18
Sample selected as sweeter by panelists, Total ([3]; 10% Sucrose Lemonade Kool-Aid vs 5% Sucrose Lemonade Kool-Aid + 41.7 μM Compound D5, n = 48): 27
